Legend:
tremorine-induced tremor = assay: Anti-tremorine activity: antagonism of tremorine-induced tremor; format: in vivo, male d,d-strain mice; settings: Mus musculus, mice
Experimental: (§1) Male d,d-strain mice weighing 18 to 22 grs. were used for the experiments.
(§2) Groups of each 10 mice were treated orally and intraperitoneally with a wide range of doses of the above-mentioned compounds or saline.
1) Anti-tremorine activity:
Antagonistic effects on the tremorine-induced tremor were observed as follows:
Ten (10) minutes after the intraperitoneal injection of the individual compounds under test, on one hand, and 40 minutes after the oral administration of said individual compounds, on the other hand, 20 mg/kg of tremorine hydrochloride were subcutaneously injected to each group of the mice. The occurrence of tremor on the individually caged mice was visually observed 20 minutes after the tremorineinjection.

[1] = tested on: isolated smooth muscle preparations (histamine); assay: Anti-histamine activity on isolated smooth muscle preparations; settings: A at 4 × 10^-6, B at 10^-6, C at 4 × 10^-7 g/ml
Excerpt: (§3) Additionally, anti-histamine, anti-acetylcholine, antiserotonin and smooth muscle-relaxing activities of the compounds under test were examined on isolated smooth muscle preparations.

in vivo = assay: in vivo; parameters: species or system male d,d-strain mice; settings: mouse, po
Experimental: as §1, §2

[2] = tested on: isolated smooth muscle preparations; assay: Smooth muscle-relaxing activity on isolated smooth muscle preparations; settings: for smooth muscle-relaxant activity (in words): A at 4 × 10^-6, B at 10^-6, C at 4 × 10^-7 g/ml, concentration for control not stated
Excerpt: as §3

[3] = tested on: isolated smooth muscle preparations (acetylcholine); assay: Anti-acetylcholine activity on isolated smooth muscle preparations; settings: A at 4 × 10^-6, B at 10^-6, C at 4 × 10^-7 g/ml
Excerpt: as §3

[4] = Acute toxicity: mortality during 24 hours after oral administration; format: in vivo; settings: mouse, in vivo, mice, mortality during 24 hours
Experimental: as §1, §2
(§4) The mortality ensued during 24 hours after the oral administration was recorded to determine acute toxicity of the compound under test on the mice.

mice = assay: as above; format: in vivo; settings: 24 hours
Experimental: as §1, §2, §4

[5] = tested on: physostigmine-induced convulsive death; assay: Anti-physostigmine activity: antagonism of convulsive death caused by physostigmine; format: in vivo, male d,d-strain mice; settings: Mus musculus, 1 h; oral, mice, 60 minutes after administration; footnote 1) for control: no effect up to the dose
Experimental: as §1, §2
(§5) 2) Anti-nicotine and anti-physostigmine activities:
(§6) Antagonistic effects against the convulsive death of the mice caused by the injections of nicotine, on one hand, and physostigmine, on the other hand, were observed as follows:
(§7) Thirty (30) minutes after the intraperitoneal injection of the individual compounds under test, on one hand, and 60 minutes after the oral administration of said individual compounds, on the other hand, 4 mg/kg of nicotine tartrate, on one hand, and 0.5 mg/kg of physostigmine sulfate, on the other hand, were intravenously injected to each group of the mice. The convulsive death, if any, of the mice in each group was then observed.

[6] = tested on: nicotine-induced convulsive death; assay: Anti-nicotine activity: antagonism of convulsive death caused by nicotine; format: in vivo, male d,d-strain mice; settings: Mus musculus, mice
Experimental: as §1, §2, §5, §6, §7

[7] = 1 h, oral, 60 minutes after administration
[8] = ip, 0.5 h, intraperitoneal, 30 minutes after injection

Compound	ED50 (tremorine-induced tremor; [7])	ED50 (tremorine-induced tremor; [8])	anti-histamine activity (in words) [1]	TD50 at 1 h (in vivo)	smooth muscle-relaxant activity (in words) [2]	anti-acetylcholine activity (in words) [3]	LD50 at 24 h [4]	acute toxicity compared with Compound under control (in words) (mice)	ED50 [5]	ED50 [6, 7]	ED50 [6, 8]	smooth muscle-relaxant potency relative to papaverine ([2]; Compound under control vs papaverine)
CCc1ccc(C(=O)C(C)CN2CCCCC2)cc1.Cl (centres unmarked) [Compound A, 4'-ethyl-2-methyl-3-piperidino-propiophenone hydrochloride]	32 mg/kg	23 mg/kg	do not entirely produce	640 mg/kg	strong smooth muscle-relaxant activities	do not entirely produce	800 to 1000 mg/kg	slighly stronger	84 mg/kg	175 mg/kg	21 mg/kg	–
CC(CN1CCCCC1)C(=O)c1ccc(C(C)C)cc1.Cl (centres unmarked) [Compound C, 4'-isopropyl-2-methyl-3-piperidino-propiophenone hydrochloride]	118 mg/kg	25 mg/kg	do not entirely produce	84 mg/kg	strong smooth muscle-relaxant activities	do not entirely produce	400 to 500 mg/kg	–	50 mg/kg	37 mg/kg	10 mg/kg	–
CCCc1ccc(C(=O)C(C)CN2CCCCC2)cc1.Cl (centres unmarked) [Compound B, 4'-n-propyl-2-methyl-3-piperidino-propiophenone hydrochloride]	50 mg/kg	21 mg/kg	do not entirely produce	800 mg/kg	strong smooth muscle-relaxant activities	do not entirely produce	1000 to 1500 mg/kg	almost equivalent to that of Compound under control	150 mg/kg	135 mg/kg	20 mg/kg	–
Cc1ccc(C(=O)C(C)CN2CCCCC2)cc1.Cl (centres unmarked) [Compound for Control, 2,4'-dimethyl-3-piperidino-propiophenone hydrochloride, reference compound]	210 mg/kg	80 mg/kg	–	800 mg/kg	weak smooth muscle-relaxant activity	–	1000 to 1500 mg/kg	–	> 400 mg/kg	450 mg/kg	35 mg/kg	about 1/3
